# PMC6701825, “Antiproliferative and Antimigratory Effects of a Novel YAP–TEAD Interaction Inhibitor Identified Using in Silico Molecular Docking” (Journal of Medicinal Chemistry, 2019)
# Experiments:
# [1] = molecular target: T1, binding of endogenous YAP protein to recombinant GST-TEAD1 (Homo sapiens, UniProt P28347); assay: In vitro GST-TEAD1-YAP interaction (pull-down) assay; conditions: 200 μM compound, HEK293 lysate, 18 h at 4 °C, Western blot
# T1 construct: human TEAD1 (corresponding to residues 194–411); made in house; host or cells: SoluBL21 Escherichia coli (GST-TEAD1); HEK293 lysate (endogenous YAP)
# From the text: We next tested the ability of these four compounds to inhibit the binding of endogenous YAP protein present in HEK293 whole cell lysate to recombinant glutathione S-transferase (GST)–TEAD1 protein immobilized on glutathione resin beads. […] Inhibition of YAP binding to TEAD1 in the presence of CPD3 was further confirmed using co-immunoprecipitation assays using mammalian cell lysates prepared from HeLa expressing myc-TEAD1 and GFP–YAP. […] We next set up a 96-well plate-based YAP–TEAD interaction assay to determine the IC50 of the inhibition of the YAP–TEAD complex by CPD3.
# The DNA fragment encoding human TEAD1 (corresponding to residues 194–411) was amplified by polymerase chain reaction (PCR) and cloned into the BamH1 and EcoR1 sites of vector pGEX-6P1, in frame with the terminal GST tag. GST–TEAD1 fusion protein expression was induced in SoluBL21s Escherichia coli by culture at 25 °C in the presence of 0.2 mM IPTG for 18 h. […] Bound proteins were eluted by boiling in Laemmli sample buffer and YAP and GST–TEAD levels quantified by Western blotting with an anti-YAP antibody (Cell Signaling; #4912) and an anti-GST antibody (Cell Signaling; #5475S).
# CCN1 protein = assay: Western blotting of CCN1 protein in VSMC lysates; type: cell-based; conditions: indicated concentrations, 16 hr
# Method: Figure 9 Compound 3.1 inhibits TEAD target gene expression, cell proliferation, and cell migration in RaVSMCs. RaVSMCs stably transduced with TEAD-NLUC (A) or transiently transfected with CCN1-LUC or CTGF-LUC were treated with the indicated concentrations of compound 3.1 for 6 hr. Cell conditioned media (A) or cell lysates (B−C) were assayed for nanoluciferase or fire-fly luciferase activity, respectively. VSMC were treated with 60 μM compound 3.1 for 6 h (n = 3). Total RNA was analyzed for mRNA levels of TEAD-target genes (D) or constitutive housekeeping genes (E) by qRT-PCR. VSMC were treated with indicated concentrations of compound 3.1 for 16 hr (n = 4). Total cell lysates were analyzed for CCN1 protein expression by Western blotting (F). RaVSMCs (G) or HuVSMC (H) were treated with indicated concentrations of compound 3.1 for 18 h followed by labeling in 10 μM EdU for a further 6 h (n = 4). RaVSMCs (I) or HuVSMC (J) were treated with indicated concentrations of compound 3.1 and cell migration quantified using IncuCyte real time migration assay (n = 4).
# Extracted samples were separated by 4–12% SDS-polyacrylamide gel electrophoresis (Bio-Rad) and transferred to poly(vinylidene difluoride) membranes (GE Healthcare). Membranes were blocked in 5% low-fat milk in 10 mM Tris pH 7.6, 150 mM NaCl, 0.2% Tween. […]
# [2] = test system: TEAD-independent GAL4 reporter vector; assay: TEAD-independent reporter vector basal activity (Supplement Figure 10A); type: cell-based; conditions: 6 hours
# From the text: TEAD proteins (TEAD1–4) display a high degree of sequence conservation in residues that create the hydrophobic pocket that is essential for YAP binding.[51] YAP proteins also display a high degree of conservation in residues that interact with this pocket.[51] We therefore tested whether CPD3.1 was able to inhibit YAP-induced activity of TEAD1, TEAD2, TEAD3, and TEAD4. To quantify the effect of CPD3.1 on the activity of each individual TEAD paralog, while excluding interference from endogenously expressed TEAD1–4 proteins, we expressed each TEAD paralog (TEAD1–4) fused to the yeast GAL4 DNA-binding domain. Cells were transfected with the GAL4–TEAD expression vector together with a secreted nanoluciferase reporter gene vector under control of a promoter containing five GAL4 DNA-binding elements. This system allows us to study the effect of CPD3.1 on the activity of each individual TEAD protein in isolation, without interference from endogenously expressed transcription factors. In addition, the cells were co-transfected with a YAP expression vector to activate the GAL4–TEAD fusion-dependent transcription (see Supplement Figure 9). Basal activities of TEAD1, TEAD2, TEAD3, and TEAD4 were inhibited by CPD3.1 (Figure 7A–D). This likely reflects the inhibition of TEAD activity driven by endogenous expression of YAP. […]
# T1 sequence (P28347 209-426): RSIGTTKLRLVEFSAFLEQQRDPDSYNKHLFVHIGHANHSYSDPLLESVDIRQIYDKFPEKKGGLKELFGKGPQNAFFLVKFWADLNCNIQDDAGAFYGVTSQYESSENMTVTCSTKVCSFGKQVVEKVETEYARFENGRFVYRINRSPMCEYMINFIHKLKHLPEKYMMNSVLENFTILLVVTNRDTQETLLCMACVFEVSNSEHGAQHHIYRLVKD
Structure (SMILES),inhibition of binding of YAP protein to GST-TEAD1 [1],CCN1 protein levels (Western blot) (CCN1 protein),basal activity of a TEAD-independent GAL4 reporter vector [2]
Cc1ccc2c(c1)c1c3n2CCN(CC(O)CN2CCN(C(=O)c4ccco4)CC2)C3CCC1 (stereo not drawn) [CPD3],inhibit the binding of YAP protein,,
Cc1ccc2c(c1)c1c3n2CCNC3CCC1 (stereo not drawn) [CPD3.1],,inhibited the expression of CCN1 protein levels,did not inhibit the basal activity
